In PubChem BioAssay (NCI):
Where “and” joins values, the source holds several entries; their conditions need not be identical. Identical values can stand only once.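 Growth conditions: 96-well plates. Treatment: test compound, 48 hours, 5 concentrations. Analysis: linear interpolation between bracketing concentrations; unreached endpoints set to highest concentration. The concentration for 50% growth inhibition is given as GI50. TGI: total growth inhibition.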

Tests used:
Test in all cases: NCI-60 cell line screen, 48 h
SK-MEL-5 melanoma = tested on: SK-MEL-5 melanoma
RXF 393 renal = tested on: RXF 393 renal
MOLT-4 leukemia = tested on: MOLT-4 leukemia
CAKI-1 renal = tested on: CAKI-1 renal
UO-31 renal = tested on: UO-31 renal
SK-MEL-2 melanoma = tested on: SK-MEL-2 melanoma
SN12C renal = tested on: SN12C renal
A549 NSCLC = tested on: A549 NSCLC
HCC-2998 colon = tested on: HCC-2998 colon
NCI-H460 lung = tested on: NCI-H460 lung

| Structure (SMILES) | TGI (SK-MEL-5 melanoma) | TGI (RXF 393 renal) | TGI (MOLT-4 leukemia) | TGI (CAKI-1 renal) | TGI (UO-31 renal) | TGI (SK-MEL-2 melanoma) | TGI (SN12C renal) | TGI (A549 NSCLC) | TGI (HCC-2998 colon) | TGI (NCI-H460 lung) | GI50 (SK-MEL-5 melanoma) | GI50 (RXF 393 renal) | GI50 (MOLT-4 leukemia) | GI50 (CAKI-1 renal) | GI50 (UO-31 renal) | GI50 (NCI-H460 lung) | GI50 (SK-MEL-2 melanoma) | GI50 (SN12C renal) | GI50 (A549 NSCLC) | GI50 (HCC-2998 colon) |
| --- | --- | --- | --- | --- | --- | --- | --- | --- | --- | --- | --- | --- | --- | --- | --- | --- | --- | --- | --- | --- |
| COc1cc(C2S/C(=C/c3ccccc3)C(=O)N2c2ccc(NC(C)=O)cc2)cc(OC)c1OC (centres undefined) | 34.9 µM | 63 µM | 75.6 µM | 72.4 µM | > 100 µM | 20.3 µM | 60.3 µM | > 100 µM | 52.3 µM | – | – | – | – | – | – | – | – | – | – | – |
| COc1ccc(-c2csc(=Nc3ccccc3)n2CCCN(C)C)cc1 | – | 26.6 µM | 48.9 µM | > 100 µM | 44.9 µM | 37.7 µM | > 100 µM | 36.3 µM | 35.3 µM | 78.4 µM | – | – | – | – | – | – | – | – | – | – |
| COc1cc([C@@H]2c3cc4c(c(O)c3C[C@H]3COC(=O)[C@@H]32)OCO4)cc(OC)c1OC | – | – | – | – | 56.2 µM and 120 µM and > 100 µM | – | – | – | – | – | 0.0407 µM | 0.281 µM | 0.539 µM | 0.222 µM | 0.466 µM | 0.0564 µM | 1.02 µM | 0.581 µM | 0.274 µM | < 0.0241 µM and 0.241 µM |
| Cc1nc2c(c(=O)[nH]1)S/C(=C(/C#N)c1nc3ccccc3[nH]1)N2c1ccccc1 | > 100 µM | > 100 µM | > 100 µM | > 100 µM | > 100 µM | > 100 µM | > 100 µM | > 100 µM | > 100 µM | > 100 µM | – | – | – | – | – | – | – | – | – | – |
| C=C(C)C(=O)O[C@H]1CC2=C[C@@H](C[C@@]3(C)O[C@@H]3[C@H]3OC(=O)C(=C)[C@@H]31)OC2=O | 8.22 µM | 1.16 µM | 12.8 µM | 6.25 µM | 13.8 µM | 8.81 µM | 8.02 µM | 27.1 µM | 9.82 µM | 10.6 µM | – | – | 0.789 µM | 2.63 µM | – | – | – | – | – | – |
| NC(CSCc1ccc(I)cc1)C(=O)O (centres undefined) | > 100 µM | > 100 µM | > 100 µM | > 100 µM | > 100 µM | > 100 µM | > 100 µM | > 100 µM | > 100 µM | > 100 µM | – | – | – | – | – | – | – | – | – | – |
| CC(=O)N1N=C(c2ccc3ccccc3c2O)CC1c1cccs1 (centres undefined) | > 100 µM | 99.3 µM | 33.5 µM | > 100 µM | 64.1 µM | 74.3 µM | > 100 µM | 94.9 µM | 66 µM | > 100 µM | – | – | – | – | – | – | – | – | – | – |
| CCOC1=NC(C(F)(F)F)(C(F)(F)F)N=C(N2CCOCC2)O1 | > 100 µM | > 100 µM | > 100 µM | > 100 µM | > 100 µM | > 100 µM | > 100 µM | > 100 µM | > 100 µM | > 100 µM | – | – | – | – | – | – | – | – | – | – |
| COc1nc2ccc(COc3ccc(C(=O)NC(CCC(=O)O)C(=O)O)cc3)cc2nc1OC (centres undefined) | > 10 µM | > 10 µM | > 10 µM | > 10 µM | > 10 µM | > 10 µM | > 10 µM | > 10 µM | > 10 µM | > 10 µM | – | – | – | – | – | – | – | – | – | – |
| O=C1C(Cl)N(c2cccc(Cl)c2)C1c1c[nH]c2ccccc12 (centres undefined) | > 100 µM | > 100 µM | > 100 µM | – | > 100 µM | > 100 µM | > 100 µM | > 100 µM | – | > 100 µM | – | – | – | – | – | – | – | – | – | – |
| c1ccc(N2N=C(c3cccc(Nc4ccncc4)c3)CC2c2ccc3c(c2)OCO3)cc1 (centres undefined) | 3.17 µM | 3.06 µM | – | 2.69 µM | 2.84 µM | 4.01 µM | 3.25 µM | – | 3.36 µM | 3.18 µM | 1.77 µM | 1.61 µM | – | 1.3 µM | 1.4 µM | 1.71 µM | 2.02 µM | 1.71 µM | – | 1.84 µM |
| NC(=S)N/N=C/c1nccc2ccccc12 | > 100 µM | 0.902 µM | > 100 µM | 58.7 µM | 3.42 µM | > 100 µM | > 100 µM | > 100 µM | > 100 µM | 4.94 µM | – | – | – | – | – | – | – | – | – | – |
| CC[C@@H]1ON(C)[C@H]2CN(C)C(=O)[C@@H]12 | > 100 µM | – | > 100 µM | > 100 µM | > 100 µM | > 100 µM | > 100 µM | > 100 µM | > 100 µM | > 100 µM | – | – | – | – | – | – | – | – | – | – |
| COc1ccc2c(c1O)-c1cc(O)cc3c1[C@@H](C2)N(C)CC3 | 122 µM | 119 µM | 211 µM | 142 µM | 103 µM | 43.4 µM | 183 µM | 138 µM | 139 µM | 150 µM | – | – | – | – | – | – | – | – | – | – |
